Results published in ChEMBL document CHEMBL3232845 (Bioorg Med Chem Lett, 2014).

Experiments:
[1] = Oral bioavailability in mouse at 30 mg/kg; type: ADME, organism-based; conditions: in vivo
[2] = biological target: Fibroblast growth factor receptor 3 (Homo sapiens) (UniProt P22607); assay: Inhibition of human FGFR3 assessed as enzyme activity at 1 uM relative to control; design: scale not given: the % may be the effect or the level left
[3] = biological target: Proto-oncogene tyrosine-protein kinase ROS (Homo sapiens) (UniProt P08922); assay: Inhibition of human Ros assessed as enzyme activity at 1 uM relative to control; design: scale not given: the % may be the effect or the level left
[4] = biological target: Protein kinase C epsilon type (Homo sapiens) (UniProt Q02156); assay: Inhibition of human PKCepsilon assessed as enzyme activity at 1 uM relative to control; design: scale not given: the % may be the effect or the level left
[5] = biological target: Rhodopsin kinase GRK7 (Homo sapiens) (UniProt Q8WTQ7); assay: Inhibition of human GRK7 assessed as enzyme activity at 1 uM relative to control; design: scale not given: the % may be the effect or the level left
[6] = biological target: Platelet-derived growth factor receptor alpha (Homo sapiens) (UniProt P16234); assay: Inhibition of human PDGFRalpha assessed as enzyme activity at 1 uM relative to control; design: scale not given: the % may be the effect or the level left
[7] = biological target: Inhibitor of nuclear factor kappa-B kinase subunit beta (Homo sapiens) (UniProt O14920); assay: Inhibition of human IKKbeta assessed as enzyme activity at 1 uM relative to control; design: scale not given: the % may be the effect or the level left
[8] = biological target: MAP kinase-activated protein kinase 5 (Homo sapiens) (UniProt Q8IW41); assay: Inhibition of human MAPKAP-K5 assessed as enzyme activity at 1 uM relative to control; design: scale not given: the % may be the effect or the level left
[9] = biological target: Serine/threonine-protein kinase B-raf (Homo sapiens, UniProt P15056, V600E); assay: Inhibition of B-Raf V600E mutant in human Malme-3M cells assessed as basal ERK phosphorylation; type: cell-based
[10] = biological target: Tyrosine-protein kinase FRK (Homo sapiens) (UniProt P42685); assay: Inhibition of human PTK5 assessed as enzyme activity at 1 uM relative to control; design: scale not given: the % may be the effect or the level left
[11] = biological target: Serine/threonine-protein kinase PAK 6 (Homo sapiens) (UniProt Q9NQU5); assay: Inhibition of human PAK6 assessed as enzyme activity at 1 uM relative to control; design: scale not given: the % may be the effect or the level left
[12] = biological target: Fibroblast growth factor receptor 1 (Homo sapiens) (UniProt P11362); assay: Inhibition of human FGFR1 assessed as enzyme activity at 1 uM relative to control; design: scale not given: the % may be the effect or the level left
[13] = biological target: Dual specificity mitogen-activated protein kinase kinase 4 (Mus musculus) (UniProt P47809); assay: Inhibition of mouse MKK4 assessed as enzyme activity at 1 uM relative to control; design: scale not given: the % may be the effect or the level left
[14] = biological target: Interleukin-1 receptor-associated kinase 1 (Homo sapiens) (UniProt P51617); assay: Inhibition of human IRAK1 assessed as enzyme activity at 1 uM relative to control; design: scale not given: the % may be the effect or the level left
[15] = biological target: Activated CDC42 kinase 1 (Homo sapiens) (UniProt Q07912); assay: Inhibition of human TNK2 assessed as enzyme activity at 1 uM relative to control; design: scale not given: the % may be the effect or the level left
[16] = biological target: Misshapen-like kinase 1 (Homo sapiens) (UniProt Q8N4C8); assay: Inhibition of human MINK assessed as enzyme activity at 1 uM relative to control; design: scale not given: the % may be the effect or the level left
[17] = biological target: Tyrosine-protein kinase Fes/Fps (Homo sapiens) (UniProt P07332); assay: Inhibition of human Fes assessed as enzyme activity at 1 uM relative to control; design: scale not given: the % may be the effect or the level left
[18] = biological target: Insulin receptor (Homo sapiens) (UniProt P06213); assay: Inhibition of human IR assessed as enzyme activity at 1 uM relative to control; design: scale not given: the % may be the effect or the level left
[19] = biological target: MAP kinase-activated protein kinase 2 (Homo sapiens) (UniProt P49137); assay: Inhibition of human MAPKAP-K2 assessed as enzyme activity at 1 uM relative to control; design: scale not given: the % may be the effect or the level left
[20] = biological target: Tyrosine-protein kinase Fer (Homo sapiens) (UniProt P16591); assay: Inhibition of human Fer assessed as enzyme activity at 1 uM relative to control; design: scale not given: the % may be the effect or the level left
[21] = biological target: PAS domain-containing serine/threonine-protein kinase (Homo sapiens) (UniProt Q96RG2); assay: Inhibition of human PASK assessed as enzyme activity at 1 uM relative to control; design: scale not given: the % may be the effect or the level left
[22] = biological target: Dual specificity protein kinase CLK2 (Homo sapiens) (UniProt P49760); assay: Inhibition of human CLK2 assessed as enzyme activity at 1 uM relative to control; design: scale not given: the % may be the effect or the level left
[23] = biological target: Mitogen-activated protein kinase 8 (Homo sapiens) (UniProt P45983); assay: Inhibition of human JNK1alpha1 assessed as enzyme activity at 1 uM relative to control; design: scale not given: the % may be the effect or the level left
[24] = biological target: Serine/threonine-protein kinase DCLK2 (Homo sapiens) (UniProt Q8N568); assay: Inhibition of human DCAMKL2 assessed as enzyme activity at 1 uM relative to control; design: scale not given: the % may be the effect or the level left
[25] = biological target: Rho-associated protein kinase 1 (Homo sapiens) (UniProt Q13464); assay: Inhibition of human ROCK-1 assessed as enzyme activity at 1 uM relative to control; design: scale not given: the % may be the effect or the level left
[26] = biological target: Serine/threonine-protein kinase MRCK alpha (Homo sapiens) (UniProt Q5VT25); assay: Inhibition of human MRCKalpha assessed as enzyme activity at 1 uM relative to control; design: scale not given: the % may be the effect or the level left
[27] = biological target: Casein kinase I isoform gamma-3 (Homo sapiens) (UniProt Q9Y6M4); assay: Inhibition of human CK1gamma3 assessed as enzyme activity at 1 uM relative to control; design: scale not given: the % may be the effect or the level left
[28] = biological target: Serine/threonine-protein kinase STK11 (Homo sapiens) (UniProt Q15831); assay: Inhibition of human LKB1 assessed as enzyme activity at 1 uM relative to control; design: scale not given: the % may be the effect or the level left
[29] = biological target: Mitogen-activated protein kinase 1 (Homo sapiens) (UniProt P28482); assay: Inhibition of human ERK2 assessed as enzyme activity at 1 uM relative to control; design: scale not given: the % may be the effect or the level left
[30] = biological target: Phosphorylase b kinase gamma catalytic chain, liver/testis isoform (Homo sapiens) (UniProt P15735); assay: Inhibition of human PhKgamma2 assessed as enzyme activity at 1 uM relative to control; design: scale not given: the % may be the effect or the level left
[31] = biological target: Ephrin type-A receptor 4 (Homo sapiens) (UniProt P54764); assay: Inhibition of human EphA4 assessed as enzyme activity at 1 uM relative to control; design: scale not given: the % may be the effect or the level left
[32] = biological target: Protein kinase C theta type (Homo sapiens) (UniProt Q04759); assay: Inhibition of human PKCtheta assessed as enzyme activity at 1 uM relative to control; design: scale not given: the % may be the effect or the level left
[33] = biological target: Mitogen-activated protein kinase 10 (Homo sapiens) (UniProt P53779); assay: Inhibition of human JNK3 assessed as enzyme activity at 1 uM relative to control; design: scale not given: the % may be the effect or the level left
[34] = biological target: Serine/threonine-protein kinase Sgk3 (Homo sapiens) (UniProt Q96BR1); assay: Inhibition of human SGK3 assessed as enzyme activity at 1 uM relative to control; design: scale not given: the % may be the effect or the level left
[35] = biological target: Insulin receptor (Homo sapiens) (UniProt P06213); assay: Inhibition of human activated IR assessed as enzyme activity at 1 uM relative to control; design: scale not given: the % may be the effect or the level left
[36] = biological target: Tyrosine-protein kinase JAK2 (Homo sapiens) (UniProt O60674); assay: Inhibition of human JAK2 assessed as enzyme activity at 1 uM relative to control; design: scale not given: the % may be the effect or the level left
[37] = biological target: Mitogen-activated protein kinase 13 (Homo sapiens) (UniProt O15264); assay: Inhibition of human p38delta assessed as enzyme activity at 1 uM relative to control; design: scale not given: the % may be the effect or the level left
[38] = biological target: Mitogen-activated protein kinase 14 (Homo sapiens) (UniProt Q16539); assay: Inhibition of human p38alpha assessed as enzyme activity at 1 uM relative to control; design: scale not given: the % may be the effect or the level left
[39] = biological target: Receptor tyrosine-protein kinase erbB-4 (Homo sapiens) (UniProt Q15303); assay: Inhibition of human ErbB4 assessed as enzyme activity at 1 uM relative to control; design: scale not given: the % may be the effect or the level left

Chain of Insulin receptor (Homo sapiens) (P06213 28-758 limits assumed): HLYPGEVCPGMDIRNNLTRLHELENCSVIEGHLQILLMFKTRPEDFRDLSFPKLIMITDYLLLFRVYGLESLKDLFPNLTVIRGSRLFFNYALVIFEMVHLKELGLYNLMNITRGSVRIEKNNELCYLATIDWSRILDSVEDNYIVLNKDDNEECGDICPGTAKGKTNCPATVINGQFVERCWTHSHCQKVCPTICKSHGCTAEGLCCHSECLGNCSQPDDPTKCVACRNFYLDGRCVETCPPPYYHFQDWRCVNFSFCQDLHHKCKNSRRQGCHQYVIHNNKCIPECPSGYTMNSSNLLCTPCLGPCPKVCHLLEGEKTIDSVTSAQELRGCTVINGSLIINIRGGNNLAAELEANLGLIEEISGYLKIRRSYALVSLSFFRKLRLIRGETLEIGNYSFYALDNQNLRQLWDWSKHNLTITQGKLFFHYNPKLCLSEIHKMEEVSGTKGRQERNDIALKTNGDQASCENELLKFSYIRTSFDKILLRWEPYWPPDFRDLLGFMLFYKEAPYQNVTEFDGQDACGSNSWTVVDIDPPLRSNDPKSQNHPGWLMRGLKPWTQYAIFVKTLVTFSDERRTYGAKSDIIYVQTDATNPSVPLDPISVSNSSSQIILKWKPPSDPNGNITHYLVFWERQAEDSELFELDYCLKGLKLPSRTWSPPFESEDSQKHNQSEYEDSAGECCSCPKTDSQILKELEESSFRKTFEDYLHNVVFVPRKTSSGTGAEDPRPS
Chain of Insulin receptor (Homo sapiens) (P06213 763-1382 limits assumed): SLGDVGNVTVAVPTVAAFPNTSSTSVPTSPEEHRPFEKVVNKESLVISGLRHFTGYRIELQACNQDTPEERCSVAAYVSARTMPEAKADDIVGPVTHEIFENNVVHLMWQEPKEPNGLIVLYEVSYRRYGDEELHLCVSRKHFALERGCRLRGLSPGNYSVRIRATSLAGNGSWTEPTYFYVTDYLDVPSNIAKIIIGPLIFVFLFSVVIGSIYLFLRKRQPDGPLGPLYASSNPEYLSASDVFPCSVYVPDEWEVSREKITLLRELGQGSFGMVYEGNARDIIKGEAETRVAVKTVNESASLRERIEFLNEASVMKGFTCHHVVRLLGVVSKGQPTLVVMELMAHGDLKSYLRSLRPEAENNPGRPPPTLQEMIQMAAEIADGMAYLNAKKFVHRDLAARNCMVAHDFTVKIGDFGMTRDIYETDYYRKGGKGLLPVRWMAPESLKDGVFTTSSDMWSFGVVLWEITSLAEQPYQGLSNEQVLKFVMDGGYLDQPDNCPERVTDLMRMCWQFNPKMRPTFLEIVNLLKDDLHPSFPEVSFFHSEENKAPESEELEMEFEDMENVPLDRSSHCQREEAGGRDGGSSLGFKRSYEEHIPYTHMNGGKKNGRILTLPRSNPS
Chain of Casein kinase I isoform gamma-3 (Homo sapiens) (Q9Y6M4 whole entry, looked up, canonical isoform): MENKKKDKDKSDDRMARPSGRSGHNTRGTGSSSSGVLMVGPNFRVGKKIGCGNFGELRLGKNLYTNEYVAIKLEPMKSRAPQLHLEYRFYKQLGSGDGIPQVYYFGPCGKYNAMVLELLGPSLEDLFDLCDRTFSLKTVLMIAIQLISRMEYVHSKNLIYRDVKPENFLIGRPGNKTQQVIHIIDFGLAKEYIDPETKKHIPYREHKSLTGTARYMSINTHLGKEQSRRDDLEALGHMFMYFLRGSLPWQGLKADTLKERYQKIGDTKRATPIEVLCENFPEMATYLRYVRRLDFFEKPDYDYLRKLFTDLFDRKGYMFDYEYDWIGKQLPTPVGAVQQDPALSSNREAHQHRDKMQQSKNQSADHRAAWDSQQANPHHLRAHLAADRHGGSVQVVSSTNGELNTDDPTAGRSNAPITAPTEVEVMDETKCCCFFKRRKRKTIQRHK
Chain of Dual specificity mitogen-activated protein kinase kinase 4 (Mus musculus) (P47809 whole entry): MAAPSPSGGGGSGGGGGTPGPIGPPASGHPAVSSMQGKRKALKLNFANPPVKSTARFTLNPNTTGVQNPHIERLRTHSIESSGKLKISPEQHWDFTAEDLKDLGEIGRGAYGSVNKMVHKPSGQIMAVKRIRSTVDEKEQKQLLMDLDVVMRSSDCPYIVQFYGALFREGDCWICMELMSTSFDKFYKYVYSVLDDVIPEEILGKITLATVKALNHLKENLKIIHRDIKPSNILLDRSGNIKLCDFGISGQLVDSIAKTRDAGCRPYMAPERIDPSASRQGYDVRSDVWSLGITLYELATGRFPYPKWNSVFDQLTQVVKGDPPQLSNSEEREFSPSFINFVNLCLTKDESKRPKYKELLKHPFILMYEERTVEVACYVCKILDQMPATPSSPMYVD
Chain of Mitogen-activated protein kinase 10 (Homo sapiens) (P53779 whole entry): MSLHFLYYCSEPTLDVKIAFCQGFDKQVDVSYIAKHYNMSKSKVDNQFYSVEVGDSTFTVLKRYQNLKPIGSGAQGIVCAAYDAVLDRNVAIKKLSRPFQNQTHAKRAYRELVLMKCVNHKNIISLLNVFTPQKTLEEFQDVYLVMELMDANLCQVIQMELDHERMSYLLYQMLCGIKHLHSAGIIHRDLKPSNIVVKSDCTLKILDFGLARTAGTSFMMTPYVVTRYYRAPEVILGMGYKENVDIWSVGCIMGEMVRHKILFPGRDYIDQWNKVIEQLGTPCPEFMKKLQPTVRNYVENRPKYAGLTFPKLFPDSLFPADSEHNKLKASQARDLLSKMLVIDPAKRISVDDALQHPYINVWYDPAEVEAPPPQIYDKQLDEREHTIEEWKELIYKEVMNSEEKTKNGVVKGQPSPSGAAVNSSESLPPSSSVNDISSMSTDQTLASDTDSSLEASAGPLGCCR
Chain of Mitogen-activated protein kinase 8 (Homo sapiens) (P45983 whole entry): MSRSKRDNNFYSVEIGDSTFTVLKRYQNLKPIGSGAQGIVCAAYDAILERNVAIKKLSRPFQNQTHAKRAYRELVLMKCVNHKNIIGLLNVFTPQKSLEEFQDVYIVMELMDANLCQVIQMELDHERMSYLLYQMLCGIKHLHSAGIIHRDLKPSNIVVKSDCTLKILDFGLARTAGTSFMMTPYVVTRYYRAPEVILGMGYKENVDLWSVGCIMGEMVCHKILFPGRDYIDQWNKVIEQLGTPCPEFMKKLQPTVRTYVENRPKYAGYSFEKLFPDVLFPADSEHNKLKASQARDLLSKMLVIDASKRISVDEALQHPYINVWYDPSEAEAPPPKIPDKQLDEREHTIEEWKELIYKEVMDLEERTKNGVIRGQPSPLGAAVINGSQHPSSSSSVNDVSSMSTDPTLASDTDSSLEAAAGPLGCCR
Chain of MAP kinase-activated protein kinase 2 (Homo sapiens) (P49137 whole entry, looked up): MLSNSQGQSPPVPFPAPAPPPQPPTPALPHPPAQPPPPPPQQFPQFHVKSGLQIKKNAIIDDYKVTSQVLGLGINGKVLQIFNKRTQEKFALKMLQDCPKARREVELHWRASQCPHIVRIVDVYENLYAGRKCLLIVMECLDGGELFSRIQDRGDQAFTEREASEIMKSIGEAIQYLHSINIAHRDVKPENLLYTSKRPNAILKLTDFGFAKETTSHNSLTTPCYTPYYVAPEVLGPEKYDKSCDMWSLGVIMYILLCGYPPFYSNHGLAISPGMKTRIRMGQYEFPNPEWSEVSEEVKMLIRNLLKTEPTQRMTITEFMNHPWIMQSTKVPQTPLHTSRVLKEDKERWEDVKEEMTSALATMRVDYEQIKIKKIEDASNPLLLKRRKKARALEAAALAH
Chain of Protein kinase C theta type (Homo sapiens) (Q04759 whole entry, looked up): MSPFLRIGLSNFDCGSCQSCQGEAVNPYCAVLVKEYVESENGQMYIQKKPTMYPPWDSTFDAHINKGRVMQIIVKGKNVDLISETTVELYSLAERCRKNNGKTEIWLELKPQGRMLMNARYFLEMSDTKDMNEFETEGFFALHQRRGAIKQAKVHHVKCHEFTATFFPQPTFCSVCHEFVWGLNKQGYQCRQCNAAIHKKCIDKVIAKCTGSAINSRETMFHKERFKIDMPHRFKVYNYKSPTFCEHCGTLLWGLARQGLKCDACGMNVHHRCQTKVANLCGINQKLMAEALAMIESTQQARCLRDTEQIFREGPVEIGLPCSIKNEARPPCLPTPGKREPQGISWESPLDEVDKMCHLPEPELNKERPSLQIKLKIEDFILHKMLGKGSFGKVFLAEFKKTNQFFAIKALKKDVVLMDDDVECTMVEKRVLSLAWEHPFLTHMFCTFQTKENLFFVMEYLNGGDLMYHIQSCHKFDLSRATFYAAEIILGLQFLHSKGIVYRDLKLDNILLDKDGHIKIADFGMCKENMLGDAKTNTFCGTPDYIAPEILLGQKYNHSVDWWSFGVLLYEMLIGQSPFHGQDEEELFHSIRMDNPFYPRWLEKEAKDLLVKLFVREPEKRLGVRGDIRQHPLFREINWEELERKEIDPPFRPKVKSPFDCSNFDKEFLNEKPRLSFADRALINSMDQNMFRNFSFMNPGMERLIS
Chain of Fibroblast growth factor receptor 1 (Homo sapiens) (P11362 22-822 limits assumed): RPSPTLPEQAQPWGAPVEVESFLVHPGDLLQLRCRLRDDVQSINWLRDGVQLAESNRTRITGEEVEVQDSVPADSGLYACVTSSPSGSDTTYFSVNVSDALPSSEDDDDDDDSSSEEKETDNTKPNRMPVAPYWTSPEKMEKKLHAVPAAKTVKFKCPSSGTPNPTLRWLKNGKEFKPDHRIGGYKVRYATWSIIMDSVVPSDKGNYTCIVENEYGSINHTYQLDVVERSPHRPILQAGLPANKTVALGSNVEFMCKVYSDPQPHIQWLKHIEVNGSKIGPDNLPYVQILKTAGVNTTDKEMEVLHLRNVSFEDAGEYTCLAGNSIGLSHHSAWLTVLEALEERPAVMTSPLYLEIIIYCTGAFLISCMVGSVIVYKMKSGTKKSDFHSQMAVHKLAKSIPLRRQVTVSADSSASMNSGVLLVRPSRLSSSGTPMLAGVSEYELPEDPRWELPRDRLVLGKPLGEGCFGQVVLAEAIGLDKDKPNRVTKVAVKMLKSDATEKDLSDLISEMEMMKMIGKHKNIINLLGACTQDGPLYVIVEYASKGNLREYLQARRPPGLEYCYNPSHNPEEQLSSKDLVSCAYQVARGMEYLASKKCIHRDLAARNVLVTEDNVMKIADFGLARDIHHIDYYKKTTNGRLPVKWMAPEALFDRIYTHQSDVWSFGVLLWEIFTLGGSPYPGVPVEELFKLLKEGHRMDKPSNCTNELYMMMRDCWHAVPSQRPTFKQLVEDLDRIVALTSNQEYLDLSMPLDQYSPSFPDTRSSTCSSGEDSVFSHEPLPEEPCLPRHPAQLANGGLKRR

bioavailability [1]: 60%
Activity [2]: 112%
Activity [3]: 108%
Activity [4]: 99.5%
Activity [5]: 103%
Activity [6]: 102%
Activity [7]: 104%
Activity [8]: 104%
IC50 [9]: 6 nM
Activity [10]: 83.5%
Activity [11]: 110%
Activity [12]: 110%
Activity [13]: 128%
Activity [14]: 108%
Activity [15]: 104%
Activity [16]: 106%
Activity [17]: 92%
Activity [18]: 99.5%
Activity [19]: 97%
Activity [20]: 114%
Activity [21]: 110%
Activity [22]: 110%
Activity [23]: 102%
Activity [24]: 148%
Activity [25]: 108%
Activity [26]: 127%
Activity [27]: 91.5%
Activity [28]: 90.5%
Activity [29]: 97%
Activity [30]: 112%
Activity [31]: 119%
Activity [32]: 97.5%
Activity [33]: 104%
Activity [34]: 108%
Activity [35]: 95%
Activity [36]: 110%
Activity [37]: 96%
Activity [38]: 103%
Activity [39]: 106%
SMILES: CCCS(=O)(=O)Nc1cccc(Nc2ccc3ncn(C)c(=O)c3c2)c1C#N
